Measured values from ChEMBL document CHEMBL3856231 (J Med Chem, 2016).

Columns and labels:
[1] = Drug metabolism in rat liver microsomes assessed as oxidative/degradative M5 metabolite formation at 10 uM after 120 mins in presence of NADPH by LC/MS/MS analysis; type: ADME; settings: 2 h
[2] = Drug metabolism in rat liver microsomes assessed as oxidative/degradative M2 metabolite formation at 10 uM after 120 mins in presence of NADPH by LC/MS/MS analysis; type: ADME; settings: 2 h
[3] = Drug metabolism in human liver microsomes assessed as oxidative/degradative M2 metabolite formation at 10 uM after 120 mins in presence of NADPH by LC/MS/MS analysis; type: ADME; settings: 2 h
[4] = Drug metabolism in human liver microsomes assessed as oxidative/degradative M6 metabolite formation at 10 uM after 120 mins in presence of NADPH by LC/MS/MS analysis; type: ADME; settings: 2 h
[5] = Drug metabolism in rat liver microsomes assessed as oxidative/degradative M6 metabolite formation at 10 uM after 120 mins in presence of NADPH by LC/MS/MS analysis; type: ADME; settings: 2 h
[6] = Drug metabolism in rat liver microsomes assessed as oxidative/degradative M1 metabolite formation at 10 uM after 120 mins in presence of NADPH by LC/MS/MS analysis; type: ADME; settings: 2 h
[7] = Dose normalized AUC in CD-1 mouse at 10 mg/kg, po by LC/MS/MS analysis; type: ADME, organism-based; settings: in vivo
Insulin receptor [8] = target: T1, Insulin receptor (Homo sapiens, UniProt P06213)
Description: Inhibition of recombinant human INSR expressed in baculovirus using ATP as substrate after 15 mins by TRF assay

[9] = Drug metabolism in human liver microsomes assessed as (1S,5R,6S,7R)-7-[5-Chloro-2-((S)-1-methoxy-7-morpholin-4-yl-6,7,8,9-tetrahydro-5H-benzocyclohepten-2-ylamino)-pyrimidin-4-ylamino]-3-oxa-tricyclo[3.2.1.0(2,4)]octane-6-carboxylic acid amide formation at 10 uM after 120 mins in presence of NADPH by LC/MS/MS analysis; type: ADME; settings: 2 h
[10] = Drug metabolism in rat liver microsomes assessed as (1S,5R,6S,7R)-7-[5-Chloro-2-((S)-1-methoxy-7-morpholin-4-yl-6,7,8,9-tetrahydro-5H-benzocyclohepten-2-ylamino)-pyrimidin-4-ylamino]-3-oxa-tricyclo[3.2.1.0(2,4)]octane-6-carboxylic acid amide formation at 10 uM after 120 mins in presence of NADPH by LC/MS/MS analysis; type: ADME; settings: 2 h
[11] = Half life in CD-1 mouse liver microsomes by LC/MS/MS analysis; type: ADME
Cytochrome P450 2D6 = Cytochrome P450 2D6 (Homo sapiens, UniProt P10635); assay: Inhibition of CYP2D6 in human liver microsomes using dextromethorphan as substrate in presence of NADPH by LC/MS/MS analysis; type: ADME
[12] = Drug metabolism in human liver microsomes assessed as oxidative/degradative M1 metabolite formation at 10 uM after 120 mins in presence of NADPH by LC/MS/MS analysis; type: ADME; settings: 2 h
[13] = Half life in cynomolgus monkey liver microsomes by LC/MS/MS analysis; type: ADME, Macaca fascicularis
Cytochrome P450 2C9 = Cytochrome P450 2C9 (Homo sapiens, UniProt P11712); assay: Inhibition of CYP2C9 in human liver microsomes using diclofenac as substrate in presence of NADPH by LC/MS/MS analysis; type: ADME
[14] = target: Voltage-gated inwardly rectifying potassium channel KCNH2 (Homo sapiens, UniProt Q12809); assay: Inhibition of human ERG
Cytochrome P450 1A2 = target: T2, Cytochrome P450 1A2 (Homo sapiens, UniProt P05177); assay: Inhibition of CYP1A2 in human liver microsomes using phenacetin as substrate in presence of NADPH by LC/MS/MS analysis; type: ADME
T2 sequence (P05177 whole entry): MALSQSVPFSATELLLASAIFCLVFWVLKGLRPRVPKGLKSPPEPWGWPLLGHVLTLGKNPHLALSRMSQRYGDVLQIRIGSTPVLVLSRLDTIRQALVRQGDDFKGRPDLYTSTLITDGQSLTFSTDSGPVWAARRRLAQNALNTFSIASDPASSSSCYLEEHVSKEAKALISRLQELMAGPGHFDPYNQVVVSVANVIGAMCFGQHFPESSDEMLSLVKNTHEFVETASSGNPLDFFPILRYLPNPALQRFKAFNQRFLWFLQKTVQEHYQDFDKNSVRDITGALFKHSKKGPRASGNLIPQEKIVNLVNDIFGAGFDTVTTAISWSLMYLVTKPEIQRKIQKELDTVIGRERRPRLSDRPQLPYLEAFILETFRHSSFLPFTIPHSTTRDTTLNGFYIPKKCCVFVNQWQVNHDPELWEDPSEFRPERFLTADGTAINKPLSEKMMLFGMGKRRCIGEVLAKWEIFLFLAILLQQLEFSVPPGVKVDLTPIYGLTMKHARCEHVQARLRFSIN

[15] = Dose normalized AUC in Sprague-Dawley rat at 5 mg/kg, po by LC/MS/MS analysis; type: ADME, organism-based; settings: in vivo
[16] = Drug metabolism in human liver microsomes assessed as oxidative/degradative M5 metabolite formation at 10 uM after 120 mins in presence of NADPH by LC/MS/MS analysis; type: ADME; settings: 2 h
[17] = Half life in human liver microsomes by LC/MS/MS analysis; type: ADME
[18] = Half life in rat liver microsomes by LC/MS/MS analysis; type: ADME
Insulin receptor [19] = target: T1, Insulin receptor; remark: listed apart in the source
Description: Inhibition of INSR (unknown origin) by cell based assay

[20] = Dose normalized AUC in cynomolgus monkey at 10 mg/kg, po by LC/MS/MS analysis; type: ADME, organism-based, Macaca fascicularis; settings: in vivo
Focal adhesion kinase 1 = Focal adhesion kinase 1 (Homo sapiens, UniProt Q05397); assay: Inhibition of human FAK expressed in baculovirus after 30 mins using biotinyl-amino-hexanoyl-EQEDEPEGDYFEWLE-amide as substrate by TRF assay
Cytochrome P450 2C19 = Cytochrome P450 2C19 (Homo sapiens, UniProt P33261); assay: Inhibition of CYP2C19 in human liver microsomes using S-mephenytoin as substrate in presence of NADPH by LC/MS/MS analysis; type: ADME
[21] = target: ALK tyrosine kinase receptor (Homo sapiens, UniProt Q9UM73); assay: Inhibition of NPM-ALK phosphorylation in human SUP-M2 cells after 2 to 3 hrs by ELISA; type: cell-based
[22] = AUC (0 to infinity) in Sprague-Dawley rat at 5 mg/kg, po by LC/MS/MS analysis; type: ADME, organism-based; design: dose 5 mg/kg, time infinity, route oral; settings: in vivo

T1 sequence (P06213 28-758 limits assumed): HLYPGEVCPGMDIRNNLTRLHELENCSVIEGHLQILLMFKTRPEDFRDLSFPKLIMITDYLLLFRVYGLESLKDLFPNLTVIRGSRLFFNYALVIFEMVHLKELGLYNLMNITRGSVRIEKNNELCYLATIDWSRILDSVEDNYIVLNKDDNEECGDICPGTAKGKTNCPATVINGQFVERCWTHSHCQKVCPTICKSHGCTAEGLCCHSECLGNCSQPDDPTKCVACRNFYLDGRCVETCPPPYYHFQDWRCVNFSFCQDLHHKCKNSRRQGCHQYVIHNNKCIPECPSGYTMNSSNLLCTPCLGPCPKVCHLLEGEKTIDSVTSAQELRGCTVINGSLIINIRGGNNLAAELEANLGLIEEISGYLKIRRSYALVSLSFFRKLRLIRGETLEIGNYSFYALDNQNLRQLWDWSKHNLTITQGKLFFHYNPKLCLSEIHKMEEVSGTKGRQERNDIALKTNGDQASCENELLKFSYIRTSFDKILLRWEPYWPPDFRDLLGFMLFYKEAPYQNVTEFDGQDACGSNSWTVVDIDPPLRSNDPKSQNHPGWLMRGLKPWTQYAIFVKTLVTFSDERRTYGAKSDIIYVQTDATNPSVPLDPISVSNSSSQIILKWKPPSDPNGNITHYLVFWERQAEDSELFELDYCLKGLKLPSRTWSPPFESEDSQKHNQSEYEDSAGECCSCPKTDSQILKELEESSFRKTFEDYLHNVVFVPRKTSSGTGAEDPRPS
T1 sequence (P06213 763-1382 limits assumed): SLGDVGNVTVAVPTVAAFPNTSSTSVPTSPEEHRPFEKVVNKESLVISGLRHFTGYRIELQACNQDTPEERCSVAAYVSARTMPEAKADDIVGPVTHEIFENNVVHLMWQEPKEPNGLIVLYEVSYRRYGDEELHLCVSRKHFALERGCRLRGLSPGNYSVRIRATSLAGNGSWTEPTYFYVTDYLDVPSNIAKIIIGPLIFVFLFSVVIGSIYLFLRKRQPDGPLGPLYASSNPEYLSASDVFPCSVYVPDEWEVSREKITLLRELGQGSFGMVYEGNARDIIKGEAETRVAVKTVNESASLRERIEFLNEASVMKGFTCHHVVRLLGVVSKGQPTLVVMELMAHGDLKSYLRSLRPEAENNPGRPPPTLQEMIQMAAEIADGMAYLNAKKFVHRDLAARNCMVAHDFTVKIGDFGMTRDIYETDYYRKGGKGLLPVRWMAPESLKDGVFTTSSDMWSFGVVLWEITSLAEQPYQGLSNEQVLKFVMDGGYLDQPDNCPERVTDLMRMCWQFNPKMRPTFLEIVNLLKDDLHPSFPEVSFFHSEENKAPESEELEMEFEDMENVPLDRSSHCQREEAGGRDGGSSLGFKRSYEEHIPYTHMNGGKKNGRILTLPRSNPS
Chain of Cytochrome P450 2D6 (P10635 whole entry): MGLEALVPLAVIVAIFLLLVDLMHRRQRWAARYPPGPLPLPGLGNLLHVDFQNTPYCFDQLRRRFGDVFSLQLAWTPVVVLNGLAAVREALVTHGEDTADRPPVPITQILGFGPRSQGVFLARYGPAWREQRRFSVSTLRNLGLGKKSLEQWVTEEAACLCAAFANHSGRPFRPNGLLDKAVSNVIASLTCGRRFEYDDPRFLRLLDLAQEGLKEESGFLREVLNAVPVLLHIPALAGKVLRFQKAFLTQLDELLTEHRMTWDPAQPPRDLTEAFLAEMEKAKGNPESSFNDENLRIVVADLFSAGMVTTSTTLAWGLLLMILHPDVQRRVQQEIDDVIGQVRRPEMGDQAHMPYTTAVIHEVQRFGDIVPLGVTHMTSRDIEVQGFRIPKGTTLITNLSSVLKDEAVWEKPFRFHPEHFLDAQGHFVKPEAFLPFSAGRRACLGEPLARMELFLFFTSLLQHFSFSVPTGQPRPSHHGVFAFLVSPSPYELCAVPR
Chain of Focal adhesion kinase 1 (Q05397 whole entry): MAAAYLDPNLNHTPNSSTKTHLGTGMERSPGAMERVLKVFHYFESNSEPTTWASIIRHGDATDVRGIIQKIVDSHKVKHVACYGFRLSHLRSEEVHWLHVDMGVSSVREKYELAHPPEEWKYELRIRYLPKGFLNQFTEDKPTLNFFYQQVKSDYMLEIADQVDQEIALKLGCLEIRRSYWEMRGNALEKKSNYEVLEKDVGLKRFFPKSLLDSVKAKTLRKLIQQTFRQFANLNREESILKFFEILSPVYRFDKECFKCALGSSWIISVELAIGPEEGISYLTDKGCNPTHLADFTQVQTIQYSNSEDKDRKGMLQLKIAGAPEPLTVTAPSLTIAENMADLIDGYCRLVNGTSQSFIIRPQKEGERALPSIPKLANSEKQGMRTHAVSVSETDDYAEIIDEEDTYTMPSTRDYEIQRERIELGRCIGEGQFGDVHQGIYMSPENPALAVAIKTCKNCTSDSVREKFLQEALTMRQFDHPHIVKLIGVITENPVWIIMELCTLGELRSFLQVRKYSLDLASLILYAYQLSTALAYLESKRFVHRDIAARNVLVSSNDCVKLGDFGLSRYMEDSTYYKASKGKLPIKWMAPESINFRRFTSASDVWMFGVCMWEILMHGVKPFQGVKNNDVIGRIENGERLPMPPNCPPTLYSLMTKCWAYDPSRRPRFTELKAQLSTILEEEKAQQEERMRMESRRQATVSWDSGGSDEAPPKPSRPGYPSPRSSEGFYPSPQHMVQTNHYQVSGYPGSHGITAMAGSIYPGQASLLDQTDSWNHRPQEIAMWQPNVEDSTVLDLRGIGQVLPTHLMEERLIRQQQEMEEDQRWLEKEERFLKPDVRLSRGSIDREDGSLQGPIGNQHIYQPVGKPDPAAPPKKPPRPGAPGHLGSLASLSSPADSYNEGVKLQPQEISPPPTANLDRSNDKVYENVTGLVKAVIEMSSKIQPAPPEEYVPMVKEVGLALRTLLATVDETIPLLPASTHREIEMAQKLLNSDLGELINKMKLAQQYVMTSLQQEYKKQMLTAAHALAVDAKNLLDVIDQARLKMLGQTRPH
Chain of Voltage-gated inwardly rectifying potassium channel KCNH2 (Q12809 whole entry): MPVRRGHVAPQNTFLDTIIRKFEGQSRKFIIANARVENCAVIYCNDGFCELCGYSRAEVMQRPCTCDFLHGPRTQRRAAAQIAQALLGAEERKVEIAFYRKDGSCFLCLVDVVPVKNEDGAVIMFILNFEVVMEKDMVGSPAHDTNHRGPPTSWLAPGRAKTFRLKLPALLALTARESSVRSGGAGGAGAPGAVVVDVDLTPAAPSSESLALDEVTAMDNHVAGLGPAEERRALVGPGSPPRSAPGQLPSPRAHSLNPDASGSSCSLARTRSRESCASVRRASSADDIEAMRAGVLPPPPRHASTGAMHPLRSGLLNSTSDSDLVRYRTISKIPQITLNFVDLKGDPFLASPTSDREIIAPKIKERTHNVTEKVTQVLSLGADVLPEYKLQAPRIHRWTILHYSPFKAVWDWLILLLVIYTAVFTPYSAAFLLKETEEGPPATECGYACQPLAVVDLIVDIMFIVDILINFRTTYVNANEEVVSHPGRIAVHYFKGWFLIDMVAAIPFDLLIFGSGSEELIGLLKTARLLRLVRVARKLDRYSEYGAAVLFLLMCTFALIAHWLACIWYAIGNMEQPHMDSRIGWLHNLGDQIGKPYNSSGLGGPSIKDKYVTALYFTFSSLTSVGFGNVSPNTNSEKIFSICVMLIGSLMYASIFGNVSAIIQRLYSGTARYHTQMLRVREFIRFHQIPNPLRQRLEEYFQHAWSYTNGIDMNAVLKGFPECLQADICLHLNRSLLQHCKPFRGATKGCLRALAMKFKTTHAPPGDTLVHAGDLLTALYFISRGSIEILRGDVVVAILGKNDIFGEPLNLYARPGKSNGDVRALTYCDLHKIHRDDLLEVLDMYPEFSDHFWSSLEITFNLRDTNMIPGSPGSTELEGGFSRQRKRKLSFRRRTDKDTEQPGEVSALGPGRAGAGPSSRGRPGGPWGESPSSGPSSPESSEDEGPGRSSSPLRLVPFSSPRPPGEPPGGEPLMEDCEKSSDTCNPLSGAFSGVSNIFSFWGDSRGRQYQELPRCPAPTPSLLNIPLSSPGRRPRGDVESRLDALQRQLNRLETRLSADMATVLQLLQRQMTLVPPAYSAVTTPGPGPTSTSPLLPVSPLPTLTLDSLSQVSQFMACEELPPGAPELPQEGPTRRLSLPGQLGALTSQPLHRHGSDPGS
Chain of Cytochrome P450 2C9 (P11712 whole entry): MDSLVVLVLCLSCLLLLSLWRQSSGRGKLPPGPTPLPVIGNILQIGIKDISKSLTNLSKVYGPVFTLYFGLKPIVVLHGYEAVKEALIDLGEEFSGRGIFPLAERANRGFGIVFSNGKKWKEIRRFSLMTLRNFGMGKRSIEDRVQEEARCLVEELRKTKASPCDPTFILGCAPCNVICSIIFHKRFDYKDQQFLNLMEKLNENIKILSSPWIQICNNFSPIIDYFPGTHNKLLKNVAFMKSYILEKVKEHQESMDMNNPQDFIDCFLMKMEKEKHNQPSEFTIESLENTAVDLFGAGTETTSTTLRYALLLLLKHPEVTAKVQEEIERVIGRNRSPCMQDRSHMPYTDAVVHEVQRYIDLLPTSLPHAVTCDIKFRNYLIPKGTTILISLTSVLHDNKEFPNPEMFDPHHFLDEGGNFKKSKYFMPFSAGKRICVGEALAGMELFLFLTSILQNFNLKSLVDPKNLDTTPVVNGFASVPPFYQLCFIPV
Chain of Cytochrome P450 2C19 (P33261 whole entry): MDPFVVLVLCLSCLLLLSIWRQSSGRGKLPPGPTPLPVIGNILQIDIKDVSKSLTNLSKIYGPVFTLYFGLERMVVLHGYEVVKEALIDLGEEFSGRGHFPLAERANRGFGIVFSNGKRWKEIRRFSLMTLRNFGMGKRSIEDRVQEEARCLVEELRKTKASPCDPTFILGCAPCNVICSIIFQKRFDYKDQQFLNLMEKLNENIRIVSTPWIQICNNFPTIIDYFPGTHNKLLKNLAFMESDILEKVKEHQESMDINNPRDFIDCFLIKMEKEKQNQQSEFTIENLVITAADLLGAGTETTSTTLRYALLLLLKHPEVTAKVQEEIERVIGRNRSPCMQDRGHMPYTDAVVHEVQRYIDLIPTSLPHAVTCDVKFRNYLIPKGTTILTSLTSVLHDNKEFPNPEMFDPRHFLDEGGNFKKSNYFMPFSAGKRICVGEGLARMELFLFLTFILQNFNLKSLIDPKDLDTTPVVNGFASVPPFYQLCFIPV

## COc1c(Nc2ncc(Cl)c(N[C@H]3[C@@H](C(N)=O)[C@@H]4C=C[C@H]3C4)n2)ccc2c1CC[C@@H](N1CCOCC1)CC2
[1]
  Drug metabolism: Metabolite_Detected
[2]
  Drug metabolism: Metabolite_Detected
[3]
  Drug metabolism: Metabolite_Detected
[4]
  Drug metabolism: Metabolite_Detected
[5]
  Drug metabolism: Metabolite_Detected
[6]
  Drug metabolism: Metabolite_Detected
[7]
  AUC/dose: 299 ng·h/mL
Insulin receptor [8]
  IC50: 0.662 to 1.26 µM
[9]
  Drug metabolism: Metabolite_Detected
[10]
  Drug metabolism: Metabolite_Detected
[11]
  half-life: 8 to 13 min
Cytochrome P450 2D6
  IC50: > 10 µM
[12]
  Drug metabolism: Metabolite_Detected
[13]
  half-life: 17 min
Cytochrome P450 2C9
  IC50: > 10 µM
[14]
  IC50: > 10 µM
Cytochrome P450 1A2
  IC50: > 10 µM
[15]
  AUC/dose: 246 ng·h/mL
[16]
  Drug metabolism: Metabolite_Detected
[17]
  half-life: 10 to 11 min
[18]
  half-life: 7 to 16 min
Insulin receptor [19]
  IC50: > 10 µM
[20]
  AUC/dose: 95 ng·h/mL
Focal adhesion kinase 1
  IC50: 0.025 to 0.03 µM
Cytochrome P450 2C19
  IC50: > 10 µM
[21]
  IC50: 0.02 to 0.042 µM
[22]
  AUC(0-inf): 1200 ng·h/mL
